In US12503461B2, “Pesticidally active heterocyclic derivatives with sulfur and sulfoximine containing substituents” (SYNGENTA CROP PROTECTION AG, priority 2019, dated 2025):

Tests used:
Assay type in all cases: in vivo
[1] = test system: Spodoptera littoralis (Egyptian Cotton Leaf Worm); assay: Example B7: Spodoptera littoralis (Egyptian cotton leaf worm), sprayed cotton leaf discs, L1 larvae; settings: foliar, 72 h, application rate of 200 ppm, 3 days after infestation, in comparison to untreated samples
Procedure: Example B7: Spodoptera littoralis (Egyptian Cotton Leaf Worm
Cotton leaf discs were placed onto agar in 24-well microtiter plates and sprayed with aqueous test solutions prepared from 10′000 ppm DMSO stock solutions. After drying the leaf discs were infested with five L1 larvae. The samples were assessed for mortality, anti-feeding effect, and growth inhibition in comparison to untreated samples 3 days after infestation. Control of Spodoptera littoralis by a test sample is given when at least one of the categories mortality, anti-feedant effect, and growth inhibition is higher than the untreated sample.

[2] = test system: Plutella xylostella (Diamond Back Moth); assay: Example B4: Plutella xylostella (diamond back moth), treated artificial diet, eggs; settings: 192 h, application rate of 200 ppm, 8 days after infestation, in comparison to untreated samples, read-out: effect in at least one of the two categories (mortality or growth inhibition)
Procedure: Example B4: Plutella xylostella (Diamond Back Moth
24-well microtiter plates with artificial diet were treated with aqueous test solutions prepared from 10′000 ppm DMSO stock solutions by pipetting. After drying, Plutella eggs were pipetted through a plastic stencil onto a gel blotting paper and the plate was closed with it. The samples were assessed for mortality and growth inhibition in comparison to untreated samples 8 days after infestation.

[3] = test system: Diabrotica balteata (Corn Root Worm); assay: Example B1: Diabrotica balteata (corn root worm), sprayed maize sprouts on agar, L2 larvae; settings: 96 h, application rate of 200 ppm, 4 days after infestation, in comparison to untreated samples, read-out: effect in at least one of the two categories (mortality or growth inhibition)
Procedure: Example B1: Diabrotica balteata (Corn Root Worm
Maize sprouts placed onto an agar layer in 24-well microtiter plates were treated with aqueous test solutions prepared from 10′000 ppm DMSO stock solutions by spraying. After drying, the plates were infested with L2 larvae (6 to 10 per well). The samples were assessed for mortality and growth inhibition in comparison to untreated samples 4 days after infestation.

[4] = test system: Euschistus heros (Neotropical Brown Stink Bug); assay: Example B2: Euschistus heros (neotropical brown stink bug), sprayed soybean leaves, N2 nymphs; settings: 120 h, application rate of 200 ppm, 5 days after infestation, in comparison to untreated samples, read-out: effect in at least one of the two categories (mortality or growth inhibition)
Procedure: Example B2: Euschistus heros (Neotropical Brown Stink Bug
Soybean leaves on agar in 24-well microtiter plates were sprayed with aqueous test solutions prepared from 10′000 ppm DMSO stock solutions. After drying the leaves were infested with N2 nymphs. The samples were assessed for mortality and growth inhibition in comparison to untreated samples 5 days after infestation.

CCN=S(=O)(c1ccc2oc(-c3ncc(C4(C#N)CC4)cc3S(=O)(=O)CC)nc2c1)C(F)(F)F (stereo not drawn) [P8, 1-[5-ethylsulfonyl-6-[5-[N-ethyl-S-(trifluoromethyl)sulfonimidoyl]-1,3-benzoxazol-2-yl]-3-pyridyl]cyclopropanecarbonitrile]
≥ 80%: percent control (mortality, anti-feeding effect or growth inhibition) at 200 ppm [1] | percent effect (mortality or growth inhibition) at 200 ppm [2] | percent effect (mortality or growth inhibition) at 200 ppm [3] | effect (mortality or growth inhibition) at 200 ppm [4]

CCN=S(=O)(c1ccc2oc(-c3ncc(Oc4ccccn4)cc3S(=O)(=O)CC)nc2c1)C(F)(F)F (stereo not shown) [P10, ethylimino-[2-[3-ethylsulfonyl-5-(2-pyridyloxy)-2-pyridyl]-1,3-benzoxazol-5-yl]-oxo-(trifluoromethyl)-λ^6-sulfane]
≥ 80%: percent control (mortality, anti-feeding effect or growth inhibition) at 200 ppm [1] | percent effect (mortality or growth inhibition) at 200 ppm [2] | percent effect (mortality or growth inhibition) at 200 ppm [3] | effect (mortality or growth inhibition) at 200 ppm [4]

CCS(=O)(=O)c1cccnc1-c1nc2cc(S(=N)(=O)C(F)(F)F)ccc2o1 (stereo not shown) [P16, [2-(3-ethylsulfonyl-2-pyridyl)-1,3-benzoxazol-5-yl]-imino-oxo-(trifluoromethyl)-λ^6-sulfane]
≥ 80%: percent control (mortality, anti-feeding effect or growth inhibition) at 200 ppm [1] | percent effect (mortality or growth inhibition) at 200 ppm [2] | percent effect (mortality or growth inhibition) at 200 ppm [3] | effect (mortality or growth inhibition) at 200 ppm [4]

CCN=S(=O)(c1ccc2oc(-c3ncc(OCC(F)(F)F)cc3S(=O)(=O)CC)nc2c1)C(F)(F)F (stereo not shown) [P22, ethylimino-[2-[3-ethylsulfonyl-5-(2,2,2-trifluoroethoxy)-2-pyridyl]-1,3-benzoxazol-5-yl]-oxo-(trifluoromethyl)-λ^6-sulfane]
≥ 80%: percent control (mortality, anti-feeding effect or growth inhibition) at 200 ppm [1] | percent effect (mortality or growth inhibition) at 200 ppm [2] | percent effect (mortality or growth inhibition) at 200 ppm [3] | effect (mortality or growth inhibition) at 200 ppm [4]

CCS(=O)(=O)c1cc(OCC(F)(F)F)cnc1-c1nc2cc(S(=O)(=NC(C)=O)C(F)(F)F)ccc2o1 (stereo not shown) [P24, N-[[2-[3-ethylsulfonyl-5-(2,2,2-trifluoroethoxy)-2-pyridyl]-1,3-benzoxazol-5-yl]-oxo-(trifluoromethyl)-λ^6-sulfanylidene]acetamide]
≥ 80%: percent control (mortality, anti-feeding effect or growth inhibition) at 200 ppm [1] | percent effect (mortality or growth inhibition) at 200 ppm [2] | percent effect (mortality or growth inhibition) at 200 ppm [3] | effect (mortality or growth inhibition) at 200 ppm [4]

CCS(=O)(=O)c1cc(Oc2ccccn2)cnc1-c1nc2cc(S(=O)(=NC(C)=O)C(F)(F)F)ccc2o1 (stereo not shown) [P25, N-[[2-[3-ethylsulfonyl-5-(2-pyridyloxy)-2-pyridyl]-1,3-benzoxazol-5-yl]-oxo-(trifluoromethyl)-λ^6-sulfanylidene]acetamide]
≥ 80%: percent control (mortality, anti-feeding effect or growth inhibition) at 200 ppm [1] | percent effect (mortality or growth inhibition) at 200 ppm [2] | percent effect (mortality or growth inhibition) at 200 ppm [3] | effect (mortality or growth inhibition) at 200 ppm [4]

CCS(=O)(=O)c1cc(C2(C#N)CC2)cnc1-c1nc2cc(S(=O)(=NC)C(F)(F)F)ccc2o1 (stereo not drawn) [P29, 1-[5-ethylsulfonyl-6-[5-[N-methyl-S-(trifluoromethyl)sulfonimidoyl]-1,3-benzoxazol-2-yl]-3-pyridyl]cyclopropanecarbonitrile]
≥ 80%: percent control (mortality, anti-feeding effect or growth inhibition) at 200 ppm [1] | percent effect (mortality or growth inhibition) at 200 ppm [2] | percent effect (mortality or growth inhibition) at 200 ppm [3] | effect (mortality or growth inhibition) at 200 ppm [4]

CCS(=O)(=O)c1cc(C2(C#N)CC2)cnc1-c1nc2cc(S(=O)(=NC3CC3)C(F)(F)F)ccc2n1C (stereo not drawn) [P31, 1-[6-[5-[N-cyclopropyl-S-(trifluoromethyl)sulfonimidoyl]-1-methyl-benzimidazol-2-yl]-5-ethylsulfonyl-3-pyridyl]cyclopropanecarbonitrile]
≥ 80%: percent effect (mortality or growth inhibition) at 200 ppm [2] | percent effect (mortality or growth inhibition) at 200 ppm [3] | effect (mortality or growth inhibition) at 200 ppm [4]
